Assay results: ChEMBL document CHEMBL4706534, “1,2,3-Triazole-containing hybrids with potential antibacterial activity against methicillin-resistant Staphylococcus aureus (MRSA)” (Eur J Med Chem, 2020)
Converted amounts (≈) assume the structure as drawn.

How the values were obtained:
Staphylococcus aureus [1] = assay: Antibacterial activity against Methicillin-resistant Staphylococcus aureus incubated for 24 hrs by broth microdilution method; format: functional
Staphylococcus aureus [2] = assay: Antibiofilm activity against methicillin-resistant Staphylococcus aureus ATCC BAA-44 assessed as disruption of preformed biofilms incubated for 24 hrs by CV-staining based assay; format: functional, organism-based; details: ATCC BAA-44, 24 h
Staphylococcus aureus [3] = assay: Antibiofilm activity against methicillin-resistant Staphylococcus aureus ATCC BAA-44 incubated for 24 hrs by crystal violet-staining based assay; format: functional, organism-based; details: ATCC BAA-44, 24 h
Staphylococcus aureus [4] = assay: Potentiation of oxacillin-induced antibacterial activity against methicillin-resistant Staphylococcus aureus ATCC BAA-44 assessed as reduction in oxacillin MIC preincubated for 30 mins followed by oxacillin addition and measured after 16 hrs by broth microdilution method; format: functional; details: time 16.5 hrs
Staphylococcus aureus [5] = assay: Antibacterial activity against Staphylococcus aureus DSM 20231 incubated for 16 to 18 hrs by CLSI based assay; format: functional; details: time 16-18 hrs
Staphylococcus aureus [6] = assay: Antibacterial activity against methicillin-resistant Staphylococcus aureus ATCC 43300 incubated for 16 to 18 hrs by CLSI based assay; format: functional; details: time 16-18 hrs
Staphylococcus aureus [7] = assay: Resistance index, ratio of MIC for antibacterial activity against Staphylococcus aureus ATCC 43300 incubated for 16 to 18 hrs by CLSI based assay to MIC for antibacterial activity against Staphylococcus aureus DSM 20231 incubated for 16 to 18 hrs by CLSI based assay; format: functional; details: time 16-18 hrs
Staphylococcus aureus [8] = assay: Antibacterial activity against methicillin-resistant Staphylococcus aureus ATCC 33591 measured after 18 hrs by CLSI-based broth microdilution method; format: functional
Staphylococcus aureus [9] = assay: Antibacterial activity against Methicillin-resistant Staphylococcus aureus USA600 by CLSI-based microdilution method; format: functional
Staphylococcus aureus [10] = assay: Antibacterial activity against Methicillin-resistant Staphylococcus aureus USA100 by CLSI-based microdilution method; format: functional
Staphylococcus aureus [11] = assay: Antibacterial activity against wild type Methicillin-resistant Staphylococcus aureus by CLSI-based microdilution method; format: functional
Staphylococcus aureus [12] = assay: Antibacterial activity against Methicillin-resistant Staphylococcus aureus USA200 by CLSI-based microdilution method; format: functional
Staphylococcus aureus [13] = assay: Antibacterial activity against Methicillin-resistant Staphylococcus aureus USA300 by CLSI-based microdilution method; format: functional
Staphylococcus aureus [14] = assay: Antibacterial activity against Methicillin-resistant Staphylococcus aureus ATCC 33591 incubated for 20 hrs by broth two-fold dilution method; format: functional
Staphylococcus aureus [15] = assay: Bactericidal activity against methicillin-resistant Staphylococcus aureus ATCC 33591 measured after 20 hrs; format: functional
Staphylococcus aureus [16] = assay: Antibacterial activity against Methicillin-resistant Staphylococcus aureus ATCC 405055 incubated for 18 to 24 hrs by CLSI-based microbroth dilution method; format: functional; details: time 18-24 hrs
Staphylococcus aureus [17] = assay: Antibacterial activity against Methicillin-resistant Staphylococcus aureus ATCC 60202 incubated for 18 to 24 hrs by CLSI-based microbroth dilution method; format: functional; details: time 18-24 hrs
Staphylococcus aureus [18] = assay: Antibacterial activity against Methicillin-resistant Staphylococcus aureus ATCC 52056 incubated for 18 to 24 hrs by CLSI-based microbroth dilution method; format: functional; details: time 18-24 hrs
Staphylococcus aureus [19] = assay: Antibacterial activity against Methicillin-resistant Staphylococcus aureus ATCC 51033 incubated for 18 to 24 hrs by CLSI-based microbroth dilution method; format: functional; details: time 18-24 hrs
Staphylococcus aureus [20] = assay: Antibacterial activity against Methicillin-resistant Staphylococcus aureus ATCC 510019 incubated for 18 to 24 hrs by CLSI-based microbroth dilution method; format: functional; details: time 18-24 hrs
Staphylococcus aureus [21] = assay: Antibacterial activity against Methicillin-resistant Staphylococcus aureus ATCC 51345 incubated for 18 to 24 hrs by CLSI-based microbroth dilution method; format: functional; details: time 18-24 hrs
Staphylococcus aureus [22] = assay: Antibacterial activity against Methicillin-resistant Staphylococcus aureus ATCC 43300 incubated for 18 to 24 hrs by CLSI-based microbroth dilution method; format: functional; details: time 18-24 hrs
Staphylococcus aureus [23] = assay: Antibacterial activity against Methicillin-resistant Staphylococcus aureus ATCC 52351-2 incubated for 18 to 24 hrs by CLSI-based microbroth dilution method; format: functional; details: time 18-24 hrs
Staphylococcus aureus [24] = assay: Antibacterial activity against Methicillin-resistant Staphylococcus aureus ATCC 51599-2 incubated for 18 to 24 hrs by CLSI-based microbroth dilution method; format: functional; details: time 18-24 hrs
Staphylococcus aureus [25] = assay: microbe, parasite or virus in culture; details: 936
Staphylococcus aureus [26] = assay: microbe, parasite or virus in culture; details: 725

With `Cc1ccc(-n2cc(Cn3c4ccccc4c(=O)c4cc(C)ccc43)nn2)cc1` the MIC (Staphylococcus aureus [1]) was 19.6 µg/mL (≈ 51.5 µM).
In the case of `CCCCCCc1ccc(C(=O)NCCn2cc(CCCCCc3c[nH]c(N)n3)nn2)cc1`, the EC50 (Staphylococcus aureus [2]) is reported as 900 nM, the IC50 (Staphylococcus aureus [3]) is reported as 700 nM and the “fold change (FC)” value (Staphylococcus aureus [4]) is reported as 64.
With `N=C(N)NCCC[C@H](NC(=O)[C@H](Cc1c[nH]c2ccccc12)NC(=O)[C@@H](N)CCCNC(=N)N)C(=O)N[C@@H](Cc1c[nH]c2ccccc12)C(=O)N[C@@H](CCCCn1cc(COc2cc(OCc3cn(CCCC[C@H](NC(=O)[C@H](Cc4c[nH]c5ccccc45)NC(=O)[C@H](CCCNC(=N)N)NC(=O)[C@H](Cc4c[nH]c5ccccc45)NC(=O)[C@@H](N)CCCNC(=N)N)C(N)=O)nn3)cc(OCc3cn(CCCC[C@H](NC(=O)[C@H](Cc4c[nH]c5ccccc45)NC(=O)[C@H](CCCNC(=N)N)NC(=O)[C@H](Cc4c[nH]c5ccccc45)NC(=O)[C@@H](N)CCCNC(=N)N)C(N)=O)nn3)c2)nn1)C(N)=O` the MIC (Staphylococcus aureus [5]) was 5.4 µM (≈ 15.2 µg/mL), the MIC (Staphylococcus aureus [6]) was 2.7 µM (≈ 7.58 µg/mL) and the Ratio (Staphylococcus aureus [7]) was 0.5.
`CC(=O)NC[C@H]1CN(c2ccc(N3CCN(C(=O)c4cn(C[C@H]5O[C@@H](n6cc(C)c(=O)[nH]c6=O)[C@H](O)[C@@H]5O)nn4)CC3)c(F)c2)C(=O)O1` showed an MIC (Staphylococcus aureus [8]) of 64 µg/mL (≈ 95.3 µM).
For `NC[C@@H]1O[C@H](O[C@H]2[C@@H](O)[C@H](O[C@@H]3[C@@H](O)[C@H](N)C[C@H](N)[C@H]3O[C@H]3O[C@H](CN)[C@@H](O)[C@H](O)[C@H]3N)O[C@@H]2CO)[C@H](N)[C@@H](O)[C@@H]1O` [FRAMYCETIN], the MIC (Staphylococcus aureus [9]) was > 50 µg/mL, the MIC (Staphylococcus aureus [10]) was > 50 µg/mL and the MIC (Staphylococcus aureus [11]) was > 50 µg/mL. For the same molecule, the MIC (Staphylococcus aureus [12]) was > 50 µg/mL and the MIC (Staphylococcus aureus [13]) was > 50 µg/mL.
Work on `COc1cc(/C=C/c2ccc(O)cc2)cc(OC)c1` [PTEROSTILBENE] yielded an MIC (Staphylococcus aureus [14]) of 41 µg/mL (≈ 160 µM) and an MBC (Staphylococcus aureus [15]) of 41 µg/mL (≈ 160 µM).
Molecule `NC[C@@H]1O[C@H](O[C@H]2[C@@H](O)[C@H](O[C@@H]3[C@@H](O)[C@H](N)C[C@H](N)[C@H]3O[C@H]3O[C@H](CN)[C@@H](O)[C@H](O)[C@H]3N)O[C@@H]2Cn2cc(COCCCCCCCCOCc3cn(C[C@H]4O[C@@H](O[C@@H]5[C@@H](O)[C@H](N)C[C@H](N)[C@H]5O[C@H]5O[C@H](CN)[C@@H](O)[C@H](O)[C@H]5N)[C@H](O)[C@@H]4O[C@H]4O[C@@H](CN)[C@@H](O)[C@H](O)[C@H]4N)nn3)nn2)[C@H](N)[C@@H](O)[C@@H]1O` has an MIC (Staphylococcus aureus [9]) of 25 µg/mL (≈ 16.6 µM), an MIC (Staphylococcus aureus [10]) of 25 µg/mL (≈ 16.6 µM) and an MIC (Staphylococcus aureus [11]) of 25 µg/mL (≈ 16.6 µM). The MIC (Staphylococcus aureus [12]) was 25 µg/mL (≈ 16.6 µM) and the MIC (Staphylococcus aureus [13]) was 25 µg/mL (≈ 16.6 µM).
Molecule `Cc1nc(C)c(COc2ccc(N3C[C@H](Cn4ccnn4)OC3=O)cc2F)nc1C` has an MIC (Staphylococcus aureus [16]) of 4 µg/mL (≈ 9.7 µM), an MIC (Staphylococcus aureus [17]) of 4 µg/mL (≈ 9.7 µM) and an MIC (Staphylococcus aureus [18]) of 4 µg/mL (≈ 9.7 µM). The MIC (Staphylococcus aureus [19]) was 4 µg/mL (≈ 9.7 µM), the MIC (Staphylococcus aureus [20]) was 4 µg/mL (≈ 9.7 µM) and the MIC (Staphylococcus aureus [21]) was 4 µg/mL (≈ 9.7 µM). For the same molecule, the MIC (Staphylococcus aureus [22]) was 4 µg/mL (≈ 9.7 µM), the MIC (Staphylococcus aureus [23]) was 4 µg/mL (≈ 9.7 µM) and the MIC (Staphylococcus aureus [24]) was 4 µg/mL (≈ 9.7 µM).
`O=C(N[C@H](CO)[C@H](O)c1ccc([N+](=O)[O-])cc1)C(Cl)Cl` [CHLORAMPHENICOL] gave an MIC (Staphylococcus aureus [1]) of 11.6 µg/mL (≈ 35.9 µM).
Molecule `Cc1nnc(SCC2=C(C(=O)O)N3C(=O)[C@@H](NC(=O)Cn4cnnn4)[C@H]3SC2)s1` [CEFAZOLIN SODIUM] has an MIC (Staphylococcus aureus [25]) of 8 µM and an MIC (Staphylococcus aureus [26]) of 32 µM.
